Measured values reported in article PMC6200635 (ACS infectious diseases, 2018).
Like-named read-outs stand apart in the source and are kept apart here.

Assays:
[1] = test system: T. gondii tachyzoites (ME49-FLUC) in HeLa cells; test: Luciferase based growth assay, multi-point dose response; format: cell-based; settings: Toxoplasma gondii, 72 h
[2] = test system: GFP-LC3 recruitment to the T. gondii parasite-containing vacuole in GFP-LC3 HeLa cells; test: Image based GFP-LC3 recruitment assay; format: cell-based, Toxoplasma gondii; settings: IFN-γ 50 U/mL, HeLa cells activated 24 h, 6 h post-infection

| Molecule | EC50 ([1]; read-out: EC50+ IFN-γ) [nM] | EC50 ([1]; read-out: EC50 Naïve) [nM] | GFP-LC3 positive parasite-containing vacuoles [2] [%] |
| --- | --- | --- | --- |
| CCc1nc(N)nc(N)c1-c1ccc(Cl)cc1 [Pyrimethamine] | 200 | 160 | – |
| IFN-γ: recombinant human IFN-γ (R&D Systems, 285-IF-100/CF) (protein, UniProt P01579 24-161, looked up) Interferon gamma: QDPYVKEAENLKKYFNAGHSDVADNGTLFLGILKNWKEESDRKIMQSQIVSFYFKLFKNFKDDQSIQKSVETIKEDMNVKFFNSNKKKRDDFEKLTNYSVTDLNVQRKAIHELIQVMAELSPAAKTGKRKRSQMLFRG | – | – | 12.4 |
